Data: US11492335B2, “Aryl or heteroaryl triazolone derivatives or salts thereof, or pharmaceutical compositions comprising the same” (YUHAN CORPORATION, priority 2018, dated 2022)
Counter-ions that a name gives are not always drawn.

What was measured:
Assay type in all cases: biochemical
[1] = molecular target: T1, recombinant human VAP-1 (Homo sapiens, UniProt Q16853); test: Activity on recombinant human VAP-1, Amplex Red HRP-coupled hydrogen peroxide assay, benzylamine substrate; settings: recombinant human VAP-1, benzylamine substrate, 30 min preincubation at 37° C.; read-out: Inhibitory Activity (IC50, nM) human VAP-1
T1 construct: purchased R&D systems
T1 sequence (Q16853 1-763): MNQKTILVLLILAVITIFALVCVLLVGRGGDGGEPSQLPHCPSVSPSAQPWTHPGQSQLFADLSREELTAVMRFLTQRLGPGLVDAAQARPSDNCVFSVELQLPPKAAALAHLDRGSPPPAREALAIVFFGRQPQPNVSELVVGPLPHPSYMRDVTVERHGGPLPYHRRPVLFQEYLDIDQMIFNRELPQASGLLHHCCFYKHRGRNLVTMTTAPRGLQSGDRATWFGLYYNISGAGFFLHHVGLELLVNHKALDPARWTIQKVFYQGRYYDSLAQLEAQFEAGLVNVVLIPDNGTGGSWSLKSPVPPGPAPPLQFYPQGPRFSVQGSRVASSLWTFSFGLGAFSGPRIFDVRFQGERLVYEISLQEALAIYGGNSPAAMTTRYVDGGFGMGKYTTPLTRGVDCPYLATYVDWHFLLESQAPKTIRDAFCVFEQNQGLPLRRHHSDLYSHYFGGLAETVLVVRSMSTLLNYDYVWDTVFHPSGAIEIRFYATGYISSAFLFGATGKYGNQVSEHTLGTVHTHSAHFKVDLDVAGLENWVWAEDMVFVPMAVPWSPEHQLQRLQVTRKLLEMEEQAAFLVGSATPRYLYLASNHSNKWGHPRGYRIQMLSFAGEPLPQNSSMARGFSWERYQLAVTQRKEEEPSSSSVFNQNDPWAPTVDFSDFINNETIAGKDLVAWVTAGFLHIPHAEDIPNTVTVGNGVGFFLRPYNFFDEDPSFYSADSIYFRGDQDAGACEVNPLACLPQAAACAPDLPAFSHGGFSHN
Procedure, shortened: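 8-point 1:3 dilutions, final DMSO <1%; 30 min enzyme preincubation, 37 °C, pH 7.4 phosphate. Start: 1 mM benzylamine + 200 uM Amplex Red + 1 U/mL HRP. Read ex544/em590 over 1-2 h; % rate decrease vs DMSO control, 4-parameter logistic IC50.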

[2] = molecular target: T2, recombinant human MAO-A (monoamine oxidase-A) (Homo sapiens, UniProt P21397); test: Activity on recombinant human MAO-A, Amplex Red method, 0.5 mM tyramine substrate; settings: 0.5 mM tyramine, read-out: Inhibitory Activity (IC50, nM) MAO-A
T2 construct: purchased Sigma-Aldrich
T2 sequence (P21397 1-527): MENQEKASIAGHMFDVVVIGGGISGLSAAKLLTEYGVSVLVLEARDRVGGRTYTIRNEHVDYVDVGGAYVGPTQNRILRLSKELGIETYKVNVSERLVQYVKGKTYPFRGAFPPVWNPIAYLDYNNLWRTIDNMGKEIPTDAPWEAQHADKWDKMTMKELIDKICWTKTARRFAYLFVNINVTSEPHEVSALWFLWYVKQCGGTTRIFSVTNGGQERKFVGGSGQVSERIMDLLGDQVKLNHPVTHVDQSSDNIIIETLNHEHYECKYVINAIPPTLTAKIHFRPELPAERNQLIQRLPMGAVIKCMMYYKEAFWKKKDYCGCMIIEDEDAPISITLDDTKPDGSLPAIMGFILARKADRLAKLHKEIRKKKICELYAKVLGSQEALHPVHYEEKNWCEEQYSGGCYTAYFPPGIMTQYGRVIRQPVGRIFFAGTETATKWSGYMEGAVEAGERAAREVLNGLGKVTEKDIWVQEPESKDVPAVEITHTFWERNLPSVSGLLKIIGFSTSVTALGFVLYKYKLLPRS
Procedure, shortened: (§1)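 HRP-coupled Amplex Red H2O2 assay, 50 mM sodium phosphate pH 7.4; compounds (8-point 1:3 series, final DMSO <1%) preincubated with enzyme 30 min at 37° C, then 200 uM Amplex Red, 1 U/mL HRP and substrate (MAO-A 0.5 mM tyramine; MAO-B 1 mM benzylamine) added. Resorufin fluorescence (ex 544/em 590 nm) read over 1-2 h; IC50 from four-parameter logistic fit.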

[3] = molecular target: T3, recombinant human MAO-B (monoamine oxidase-B) (Homo sapiens, UniProt P27338); test: Activity on recombinant human MAO-B, Amplex Red method, 1 mM benzylamine substrate; settings: 1 mM benzylamine, read-out: Inhibitory Activity (IC50, nM) MAO-B
T3 construct: purchased Sigma-Aldrich
T3 sequence (P27338 1-520): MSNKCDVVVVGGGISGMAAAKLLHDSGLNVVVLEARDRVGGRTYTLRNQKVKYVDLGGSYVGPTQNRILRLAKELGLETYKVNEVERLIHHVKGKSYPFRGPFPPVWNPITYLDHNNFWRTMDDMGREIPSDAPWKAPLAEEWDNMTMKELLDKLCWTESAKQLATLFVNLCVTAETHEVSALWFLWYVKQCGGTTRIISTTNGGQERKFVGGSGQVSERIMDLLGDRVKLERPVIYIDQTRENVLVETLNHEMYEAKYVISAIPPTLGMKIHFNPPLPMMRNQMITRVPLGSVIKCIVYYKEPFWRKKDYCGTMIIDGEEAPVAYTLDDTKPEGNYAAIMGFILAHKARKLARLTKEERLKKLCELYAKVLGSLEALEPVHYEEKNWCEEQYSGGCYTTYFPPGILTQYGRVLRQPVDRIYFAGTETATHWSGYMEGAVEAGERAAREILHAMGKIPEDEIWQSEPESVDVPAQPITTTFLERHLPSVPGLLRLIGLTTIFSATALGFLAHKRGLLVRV
Procedure, shortened: as §1

[4] = molecular target: T4, recombinant human DAO (diamine oxidase) (Homo sapiens, UniProt P19801); test: Activity on recombinant human DAO, Amplex Red method, 1 mM putrescine substrate; settings: recombinant human DAO, 1 mM putrescine, * = between 10 and 100 nM, ** = between 300 and 1000 nM; for IC50: read-out: Inhibitory Activity (IC50, nM) DAO
T4 construct: purchased R&D systems
T4 sequence (P19801 20-751): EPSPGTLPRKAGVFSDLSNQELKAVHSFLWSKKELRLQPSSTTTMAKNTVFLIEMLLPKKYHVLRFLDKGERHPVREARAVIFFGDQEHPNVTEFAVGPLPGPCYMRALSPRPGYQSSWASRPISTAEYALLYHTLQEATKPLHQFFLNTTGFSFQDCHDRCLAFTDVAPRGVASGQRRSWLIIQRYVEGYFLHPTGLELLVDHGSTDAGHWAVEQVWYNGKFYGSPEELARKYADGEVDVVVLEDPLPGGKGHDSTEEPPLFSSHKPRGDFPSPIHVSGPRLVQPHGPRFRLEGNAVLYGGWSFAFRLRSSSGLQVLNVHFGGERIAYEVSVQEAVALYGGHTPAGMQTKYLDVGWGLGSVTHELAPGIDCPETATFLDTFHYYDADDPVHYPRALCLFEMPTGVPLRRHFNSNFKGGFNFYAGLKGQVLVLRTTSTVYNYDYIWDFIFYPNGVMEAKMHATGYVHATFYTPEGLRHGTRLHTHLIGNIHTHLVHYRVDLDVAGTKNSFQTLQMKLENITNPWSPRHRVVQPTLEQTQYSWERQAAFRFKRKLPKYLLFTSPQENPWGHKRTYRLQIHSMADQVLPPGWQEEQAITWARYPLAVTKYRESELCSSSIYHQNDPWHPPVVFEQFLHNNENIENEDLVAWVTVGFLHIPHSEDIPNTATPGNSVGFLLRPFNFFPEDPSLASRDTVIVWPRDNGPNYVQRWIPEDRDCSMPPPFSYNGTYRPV
Procedure, shortened: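 Inhibition of recombinant human DAO (diamine oxidase, R&D systems) was assessed with the Amplex Red Hydrogen Peroxide Assay Kit. Hydrogen peroxide produced from 1 mM putrescine was detected through an HRP-coupled reaction that converts Amplex Red into fluorescent resorufin, read at 544 nm excitation and 590 nm emission. IC50 values came from four-parameter logistic fits in GraphPad Prism.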

SMILES	IC50 [1]	IC50 [2]	IC50 [3]	IC50 [4]	Inhibitory Activity (IC50, nM) DAO [4]
Cc1c(-c2ccc(S(C)(=O)=O)cc2)cccc1-n1cnn(C/C(=C/F)CN)c1=O [Example 106, 2-[(2E)-2-(aminomethyl)-3-fluoroprop-2-en-1-yl]-4-[2-methyl-4′-(methylsulfonyl)biphenyl-3-yl]-2,4-dihydro-3H-1,2,4-triazol-3-one]	4.7 nM	> 100000 nM	> 10000 nM	310 nM	
CC(=O)Nc1ccc(-c2cccc(-n3cnn(C/C(=C/F)CN)c3=O)c2C)cc1 [Example 107, N-(3′-{1-[(2E)-2-(aminomethyl)-3-fluoroprop-2-en-1-yl]-5-oxo-1,5-dihydro-4H-1,2,4-triazol-4-yl}-2′-methylbiphenyl-4-yl)acetamide]	2.8 nM	> 100000 nM	> 10000 nM		no inhibitory
Cc1c(-c2ccc(-c3ccon3)cc2)cccc1-n1cnn(C/C(=C/F)CN)c1=O [Example 108, 2-[(2E)-2-(aminomethyl)-3-fluoroprop-2-en-1-yl]-4-[2-methyl-4′-(1,2-oxazol-3-yl)biphenyl-3-yl]-2,4-dihydro-3H-1,2,4-triazol-3-one]	2.2 nM	> 100000 nM	> 10000 nM	3500 nM	
Cc1c(-c2ccc3sc(N)nc3c2)cccc1-n1cnn(C/C(=C/F)CN)c1=O [Example 114, 4-[3-(2-amino-1,3-benzothiazol-5-yl)-2-methylphenyl]-2-[(2E)-2-(aminomethyl)-3-fluoroprop-2-en-1-yl]-2,4-dihydro-3H-1,2,4-triazol-3-one]	3.1 nM	> 100000 nM	> 10000 nM		no inhibitory
Cc1cc(-n2cnn(C/C(=C/F)CN)c2=O)cnc1-c1ccc(-c2nc[nH]n2)cc1 [Example 115, 2-[(2E)-2-(aminomethyl)-3-fluoroprop-2-en-1-yl]-4-{5-methyl-6-[4-(1H-1,2,4-triazol-3-yl)phenyl]pyridin-3-yl}-2,4-dihydro-3H-1,2,4-triazol-3-one]	1.5 nM	> 100000 nM	980 nM	< 100 nM	

These reach a lower IC50 [1]. Values come first.

IC50 [1]	IC50 [2]	IC50 [3]	IC50 [4]	Inhibitory Activity (IC50, nM) DAO [4]	SMILES
0.2 nM	> 100000 nM	> 10000 nM	28 nM		Cc1cc(-c2cccc(-n3cnn(C/C(=C/F)CN)c3=O)c2)cc2c1NC(=O)CC2 [Example 102, 6-(3-{1-[(2E)-2-(aminomethyl)-3-fluoroprop-2-en-1-yl]-5-oxo-1,5-dihydro-4H-1,2,4-triazol-4-yl}phenyl)-8-methyl-3,4-dihydroquinolin-2(1H)-one hydrochloride]
0.6 nM	26500 nM	1200 nM	2.5 nM		NC/C(=C\F)Cn1ncn(-c2cccc(-c3ccc4c(c3)NC(=O)CO4)c2)c1=O [Example 103, 6-(3-{1-[(2E)-2-(aminomethyl)-3-fluoroprop-2-en-1-yl]-5-oxo-1,5-dihydro-4H-1,2,4-triazol-4-yl}phenyl)-2H-1,4-benzoxazin-3(4H)-one hydrochloride]
0.83 nM	65200 nM	9640 nM	180 nM		Cc1ccc(-c2cccc(-n3cnn(C/C(=C/F)CN)c3=O)c2)c2cccnc12 [Example 105, 2-[(2E)-2-(aminomethyl)-3-fluoroprop-2-en-1-yl]-4-[3-(8-methylquinolin-5-yl)phenyl]-2,4-dihydro-3H-1,2,4-triazol-3-one hydrochloride]
0.72 nM	> 100000 nM	6020 nM	< 100 nM		Cc1cc(-n2cnn(C/C(=C/F)CN)c2=O)cnc1-c1cccc(-c2nc[nH]n2)c1 [Example 116, 2-[(2E)-2-(aminomethyl)-3-fluoroprop-2-en-1-yl]-4-{5-methyl-6-[3-(1H-1,2,4-triazol-3-yl)phenyl]pyridin-3-yl}-2,4-dihydro-3H-1,2,4-triazol-3-one]
